Values quoted from earlier work in PMC12308805, “Ultrahigh-Throughput Virtual Screening Strategies against PPI Targets: A Case Study of STAT Inhibitors” (Journal of Chemical Information and Modeling, 2025).

System: STAT5b
Design: method as in literature
Details: training set for retrospective virtual screening with 6MBW; known actives for STAT5b found in the literature; ref literature; cited from earlier work

Row | Structure (SMILES) | Type (Active / decoy)
1 | CN(CC(=O)N(Cc1ccc(C2CCCCC2)cc1)c1ccc(C(=O)O)c(O)c1)S(=O)(=O)c1ccc(-c2ccccc2)cc1 [BP-1-107, CN(CC(=O)N(Cc1ccc(C2CCCCC2)cc1)c1ccc(C(=O)O)c(O)c1)S(=O)(=O)c1ccc(-c2ccccc2)cc1] | Active
2 | Cc1cc(C)c(S(=O)(=O)N(C)CC(=O)N(Cc2ccc(C3CCCCC3)cc2)c2ccc(C(=O)O)c(O)c2)c(C)c1 [BP-1-108, Cc1cc(C)c(S(=O)(=O)N(C)CC(=O)N(Cc2ccc(C3CCCCC3)cc2)c2ccc(C(=O)O)c(O)c2)c(C)c1] | Active
